Here are results for four molecules from patent US10640457B2, “Histone acetyltransferase activators and uses thereof” (The Trustees of Columbia University in the City of New York, priority 2009, dated 2020).

The conditions of series [1]: literature [P48]; cited from earlier work.
In another series the target is T1, Sirtuin 1 (Homo sapiens, UniProt Q96EB6).
T1 sequence (Q96EB6 1-747): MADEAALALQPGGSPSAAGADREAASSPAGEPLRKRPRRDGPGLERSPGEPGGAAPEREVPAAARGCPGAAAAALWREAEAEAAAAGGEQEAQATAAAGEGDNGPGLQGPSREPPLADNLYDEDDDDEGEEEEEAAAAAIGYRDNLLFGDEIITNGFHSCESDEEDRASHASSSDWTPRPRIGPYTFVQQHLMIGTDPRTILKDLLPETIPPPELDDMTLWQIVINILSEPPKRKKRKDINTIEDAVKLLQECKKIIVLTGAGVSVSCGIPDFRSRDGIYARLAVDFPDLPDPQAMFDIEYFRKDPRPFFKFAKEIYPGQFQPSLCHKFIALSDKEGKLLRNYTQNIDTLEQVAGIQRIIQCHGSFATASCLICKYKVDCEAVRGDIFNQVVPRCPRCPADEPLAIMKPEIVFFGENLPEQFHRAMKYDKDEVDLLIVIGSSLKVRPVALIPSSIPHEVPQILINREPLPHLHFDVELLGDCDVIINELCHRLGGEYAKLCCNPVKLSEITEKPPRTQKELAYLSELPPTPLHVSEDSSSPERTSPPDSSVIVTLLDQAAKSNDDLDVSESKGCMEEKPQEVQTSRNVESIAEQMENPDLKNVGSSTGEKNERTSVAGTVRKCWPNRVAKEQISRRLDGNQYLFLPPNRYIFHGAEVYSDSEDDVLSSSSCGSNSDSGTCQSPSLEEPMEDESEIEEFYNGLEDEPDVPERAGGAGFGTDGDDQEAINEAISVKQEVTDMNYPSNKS
The series is described as follows: Sirtuin 1 fluorogenic activity assay.

A further series deals with T2, Sirtuin 2 (Homo sapiens, UniProt Q8IXJ6).
T2 sequence (Q8IXJ6 1-389): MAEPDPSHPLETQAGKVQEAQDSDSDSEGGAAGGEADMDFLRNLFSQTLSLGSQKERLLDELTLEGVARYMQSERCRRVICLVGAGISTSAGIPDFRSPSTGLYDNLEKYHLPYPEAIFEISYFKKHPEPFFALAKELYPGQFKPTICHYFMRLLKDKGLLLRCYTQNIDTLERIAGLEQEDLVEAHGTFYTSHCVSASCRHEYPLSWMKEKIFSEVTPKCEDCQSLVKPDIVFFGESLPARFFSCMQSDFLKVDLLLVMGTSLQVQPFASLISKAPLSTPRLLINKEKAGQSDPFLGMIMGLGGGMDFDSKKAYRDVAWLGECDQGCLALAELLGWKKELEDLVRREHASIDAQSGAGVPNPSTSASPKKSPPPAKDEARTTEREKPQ
The series is described as follows: Sirtuin 2 fluorogenic activity assay.

A further series is described as follows: Solubility observations. It is filed as physicochemical.
The conditions of series [2]: literature [22, 23]; cited from earlier work.
For series [3] the following is noted: literature [22, 23]; cited from earlier work. The source holds these as a separate data set.

Bounds are passed on as bounds.

For the molecule `Cc1cc(-c2ccccc2)nnc1NCCN1CCOCC1` [minaprine], the brain/blood ratio in series [1] was over 2.

The term IC50 denotes the concentration that gives 50% inhibition. A high value points to weaker potency. With `O=C(CCCCCCC(=O)Nc1ccccc1)NO` [SAHA, reference compound], the concentration for half-maximal inhibition (IC50) at Sirtuin 1 and against Sirtuin 2 was over 10 µM throughout.

As to `CCOc1ccccc1C(=O)Nc1ccc(Cl)c(C(F)(F)F)c1` [6J, N-(4-chloro-3-trifluoromethyl-phenyl)-2-ethoxy-benzamide], the “solubility in H2O” value in the series “Solubility observations” is “no solubility”. Besides, the solubility result in series [2] is recorded as “insoluble”. Besides, the membrane permeability result in series [3] was “membrane-impermeable”.

Regarding `CCCCCCCCCCCCCCCc1cccc(OCC)c1C(=O)Nc1ccc(Cl)c(C(F)(F)F)c1` [CTPB], the solubility entry in series [2] is listed as “insoluble”. The membrane permeability result in series [3] is “membrane-impermeable”.
